Measured values published in patent US20100113530A1, “S1P LYASE INHIBITORS FOR THE TREATMENT OF CEREBRAL MALARIA” (priority 2008, published 2010).

Experiments:
P. berghei ANKA = experiment: Cerebral malaria model: survival of infected mice; format: in vivo, C56B1/6 mice; settings: first dose one day before infection, FIG. 2
Procedure: (§1) FIGS. 1 and 2 show results of an experiment using three groups of 10 female C56B1/6 mice. The mice in all three groups were infected with 1 million parasites (P. berghei ANKA) i.p. in 500 μl of media. The first group was the control group. The S1P lyase inhibitor (E)-1-(4-((1R,2S,3R)-1,2,3,4-tetrahydroxybutyl)-1H-imidazol-2-yl)-ethanone oxime was administered i.p. (100 mg/kg) to the mice in the second group, and was administered by gavage (100 mg/kg) to the mice in the third group. The drug was administered daily, and was first administered one day before infection.
(§2) Twenty four hours after the drug was first administered, tail vein blood was taken from the mice, and flow cytometry analysis was used to assess the levels of B and T cells, using antibodies to CD3, CD4, CD8 and CD19. The animals were monitored daily for body weight, hematocrit, and parasitaemia, and twice daily for survival.

CD8+ T cells = experiment: Cerebral malaria model: flow cytometry of tail vein blood for B and T cell levels; format: in vivo, C56B1/6 mice; settings: first dose one day before infection, blood taken 24 h after first dose, FIG. 1
Procedure: as §1, §2

## C/C(=N\O)c1nc([C@@H](O)[C@H](O)[C@H](O)CO)c[nH]1 [(E)-1-(4-((1R,2S,3R)-1,2,3,4-tetrahydroxybutyl)-1H-imidazol-2-yl)-ethanone oxime]
P. berghei ANKA; gavage 100 mg/kg daily
  survival as compared to control group: lived significantly longer
P. berghei ANKA; i.p. 100 mg/kg daily
  survival as compared to control group: lived significantly longer
CD8+ T cells; gavage 100 mg/kg daily
  CD8+ T cells as compared to untreated control group: decreased CD8+ T cells
CD8+ T cells; i.p. 100 mg/kg daily
  CD8+ T cells as compared to untreated control group: decreased CD8+ T cells
